Measured values published in patent publication US12421252B2, “Spiro (isobenzofuranazetidine) compounds for the treatment of autoimmune disease” (Hoffmann-La Roche Inc., priority 2020, dated 2025).

The compounds below were run against T1, human TLR8 (Homo sapiens, UniProt Q9NR97) (assay: HEK293-Blue-hTLR-8 cells assay). Conditions: HEK293-Blue-hTLR8 cells, R848 stimulation, 20 hrs, SEAP reporter; read-out: HEK/hTLR8 IC50.
T1 sequence (Q9NR97 27-1041): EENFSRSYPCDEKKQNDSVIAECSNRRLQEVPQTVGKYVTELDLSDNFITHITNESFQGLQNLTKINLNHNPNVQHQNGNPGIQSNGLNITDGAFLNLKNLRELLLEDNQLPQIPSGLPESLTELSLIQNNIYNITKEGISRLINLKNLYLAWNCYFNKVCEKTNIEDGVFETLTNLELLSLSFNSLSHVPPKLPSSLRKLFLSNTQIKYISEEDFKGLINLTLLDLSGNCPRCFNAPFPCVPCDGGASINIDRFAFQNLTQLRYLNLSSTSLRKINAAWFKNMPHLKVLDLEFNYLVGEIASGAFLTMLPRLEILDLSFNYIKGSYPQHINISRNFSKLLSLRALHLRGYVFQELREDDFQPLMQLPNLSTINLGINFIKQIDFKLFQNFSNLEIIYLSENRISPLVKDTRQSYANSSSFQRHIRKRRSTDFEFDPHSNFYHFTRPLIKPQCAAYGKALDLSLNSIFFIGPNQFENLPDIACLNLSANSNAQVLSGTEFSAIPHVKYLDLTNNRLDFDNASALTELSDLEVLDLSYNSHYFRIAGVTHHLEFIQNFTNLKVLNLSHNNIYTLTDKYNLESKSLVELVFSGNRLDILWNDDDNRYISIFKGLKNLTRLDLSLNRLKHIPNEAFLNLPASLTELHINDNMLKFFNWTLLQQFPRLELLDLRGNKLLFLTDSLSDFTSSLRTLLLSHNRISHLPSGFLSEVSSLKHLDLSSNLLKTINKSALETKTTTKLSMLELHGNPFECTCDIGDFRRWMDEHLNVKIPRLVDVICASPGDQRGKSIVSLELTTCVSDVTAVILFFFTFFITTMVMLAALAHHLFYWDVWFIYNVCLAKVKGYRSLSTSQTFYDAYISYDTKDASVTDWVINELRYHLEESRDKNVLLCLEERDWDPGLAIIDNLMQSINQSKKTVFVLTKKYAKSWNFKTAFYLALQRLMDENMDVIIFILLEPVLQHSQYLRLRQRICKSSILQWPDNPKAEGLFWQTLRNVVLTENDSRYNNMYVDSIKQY
Assay type: cell-based
Description: HEK293-Blue-hTLR-8 cells assay:
A stable HEK293-Blue-hTLR-8 cell line was purchased from InvivoGen (Cat. #: hkb-htlr8, San Diego, California, USA). These cells were originally designed for studying the stimulation of human TLR8 by monitoring the activation of NF-κB. A SEAP (secreted embryonic alkaline phosphatase) reporter gene was placed under the control of the IFN-β minimal promoter fused to five NF-κB and AP-1-binding sites. The SEAP was induced by activating NF-κB and AP-1 via stimulating HEK-Blue hTLR8 cells with TLR8 ligands. Therefore the reporter expression was declined by TLR8 antagonist under the stimulation of a ligand, such as R848, for incubation of 20 hrs. The cell culture supernatant SEAP reporter activity was determined using QUANTI-Blue™kit (Cat. #: rep-qb1, Invivogen, San Diego, Ca, USA) at a wavelength of 640 nm, a detection medium that turns purple or blue in the presence of alkaline phosphatase.
HEK293-Blue-hTLR8 cells were incubated at a density of 250,000˜450,000 cells/mL in a volume of 170 μL in a 96-well plate in Dulbecco's Modified Eagle's medium (DMEM) containing 4.5 g/L glucose, 50 U/mL penicillin, […], […], 2 mM L-glutamine, 10% (v/v) heat-inactivated fetal bovine serum with addition of 20 μL test compound in a serial dilution in the presence of final DMSO at 1% and 10 μL of 60 uM R848 in above DMEM, perform incubation under 37° C. in a CO2 incubator for 20 hrs. Then 20 μL of the supernatant from each well was incubated with 180 μL Quanti-blue substrate solution at 37° C. for 2 hrs and the absorbance was read at 620-655 nm using a spectrophotometer. The signaling pathway that TLR8 activation leads to downstream NF-κB activation has been widely accepted, and therefore similar reporter assay was modified for evaluating TLR8 antagonist.

Compound | IC50 [nM]
[2H]c1ccc2c(N3C[C@H](CN4CC5(C4)OCc4cc(N6CC(N)C6)ncc45)O[C@H](C)C3)ccc(C#N)c2n1 [Example 32, 5-[(2S,6R)-2-[[6-(3-aminoazetidin-1-yl)spiro[1H-furo[3,4-c]pyridine-3,3′-azetidine]-1′-yl]methyl]-6-methyl-morpholin-4-yl]-2-deuterio-quinoline-8-carbonitrile] | 22
C[C@@H]1CN(c2ccc(C#N)n3nccc23)C[C@H](CN2CC3(C2)OCc2cc(N4CC(C)(N)C4)cnc23)O1 [Example 26, 4-[(2S,6R)-2-[[3-(3-amino-3-methyl-azetidin-1-yl)spiro[5H-furo[3,4-b]pyridine-7,3′-azetidine]-1′-yl]methyl]-6-methyl-morpholin-4-yl]pyrazolo[1,5-a]pyridine-7-carbonitrile] | 234
C[C@@H]1CN(c2ccc(C#N)n3ncc(F)c23)C[C@H](CN2CC3(C2)OCc2cc(N4CC5(CNC5)C4)ccc23)O1 [Example 12, 4-[(2S,6R)-2-[[6-(2,6-diazaspiro[3.3]heptan-2-yl)spiro[1H-isobenzofuran-3,3′-azetidine]-1′-yl]methyl]-6-methyl-morpholin-4-yl]-3-fluoro-pyrazolo[1,5-a]pyridine-7-carbonitrile] | 37
C[C@@H]1CN(c2ccc(C#N)n3ncc(F)c23)C[C@H](CN2CC3(C2)OCc2cc(N4CC5(CN(C)C5)C4)ccc23)O1 [Example 2, 3-fluoro-4-[(2R,6S)-2-methyl-6-[[6-(6-methyl-2,6-diazaspiro[3.3]heptan-2-yl)spiro[1H-isobenzofuran-3,3′-azetidine]-1′-yl]methyl]morpholin-4-yl]pyrazolo[1,5-a]pyridine-7-carbonitrile] | 25
[2H]c1ccc2c(N3C[C@H](CN4CC5(C4)OCc4cc(N6C[C@H]7NCCO[C@@H]7C6)ncc45)O[C@H](C)C3)ccc(C#N)c2n1 [Example 28, 5-[(2S,6R)-2-[[6-[(4aR,7aR)-3,4,4a,5,7,7a-hexahydro-2H-pyrrolo[3,4-b][1,4]oxazin-6-yl]spiro[1H-furo[3,4-c]pyridine-3,3′-azetidine]-1′-yl]methyl]-6-methyl-morpholin-4-yl]-2-deuterio-quinoline-8-carbonitrile] | 25
C[C@@H]1CN(c2cc(=O)n(C)c3ncccc23)C[C@H](CN2CC3(C2)OCc2cc(N4CC(N)C4)ccc23)O1 [Example 13, 4-[(2S,6R)-2-[[6-(3-aminoazetidin-1-yl)spiro[1H-isobenzofuran-3,3′-azetidine]-1′-yl]methyl]-6-methyl-morpholin-4-yl]-1-methyl-1,8-naphthyridin-2-one] | 409
C[C@@H]1CN(c2ccc(C#N)n3ncc(F)c23)C[C@H](CN2CC3(C2)OCc2cc(N4CC[C@](C)(N)C4)ccc23)O1 [Example 5, 4-[(2S,6R)-2-[[6-[(3S)-3-amino-3-methyl-pyrrolidin-1-yl]spiro[1H-isobenzofuran-3,3′-azetidine]-1′-yl]methyl]-6-methyl-morpholin-4-yl]-3-fluoro-pyrazolo[1,5-a]pyridine-7-carbonitrile] | 22
C[C@@H]1CN(c2ccc(C#N)n3ncc(F)c23)C[C@H](CN2CC3(C2)OCc2cc(N[C@H]4CNC[C@H]4F)ccc23)O1 [Example 3, 3-fluoro-4-[(2S,6R)-2-[[6-[[(3S,4R)-4-fluoropyrrolidin-3-yl]amino]spiro[1H-isobenzofuran-3,3′-azetidine]-1′-yl]methyl]-6-methyl-morpholin-4-yl]pyrazolo[1,5-a]pyridine-7-carbonitrile] | 51
C[C@@H]1CN(c2ccc(C#N)n3nccc23)C[C@H](CN2CC3(C2)OCc2cc(N4CC(N)C4)ccc23)O1 [Example 19, 4-[(2S,6R)-2-[[6-(3-aminoazetidin-1-yl)spiro[1H-isobenzofuran-3,3′-azetidine]-1′-yl]methyl]-6-methyl-morpholin-4-yl]pyrazolo[1,5-a]pyridine-7-carbonitrile] | 99
C[C@@H]1CN(c2ccc(C#N)n3ncc(F)c23)C[C@H](CN2CC3(C2)OCc2cc(N4CC(C)(N)C4)ccc23)O1 [Example 1, 4-[(2S,6R)-2-[[6-(3-amino-3-methyl-azetidin-1-yl)spiro[1H-isobenzofuran-3,3′-azetidine]-1′-yl]methyl]-6-methyl-morpholin-4-yl]-3-fluoro-pyrazolo[1,5-a]pyridine-7-carbonitrile] | 82
C[C@@H]1CN(c2ccc(C#N)n3ncc(F)c23)C[C@H](CN2CC3(C2)OCc2cc(N4CC(N)C4)ccc23)O1 [Example 9, 4-[(2S,6R)-2-[[6-(3-aminoazetidin-1-yl)spiro[1H-isobenzofuran-3,3′-azetidine]-1′-yl]methyl]-6-methyl-morpholin-4-yl]-3-fluoro-pyrazolo[1,5-a]pyridine-7-carbonitrile] | 45
[2H]c1ccc2c(N3C[C@H](CN4CC5(C4)OCc4cc(N6CCNCC6)ccc45)O[C@H](C)C3)ccc(C#N)c2n1 [Example 18, 2-deuterio-5-[(2R,6S)-2-methyl-6-[(6-piperazin-1-ylspiro[1H-isobenzofuran-3,3′-azetidine]-1′-yl)methyl]morpholin-4-yl]quinoline-8-carbonitrile] | 10
C[C@@H]1CN(c2ccc(C#N)n3ncc(F)c23)C[C@H](CN2CC3(C2)OCc2cc(N4CC5(CNCCO5)C4)ccc23)O1 [Example 4, 3-fluoro-4-[(2R,6S)-2-methyl-6-[[6-(5-oxa-2,8-diazaspiro[3.5]nonan-2-yl)spiro[1H-isobenzofuran-3,3′-azetidine]-1′-yl]methyl]morpholin-4-yl]pyrazolo[1,5-a]pyridine-7-carbonitrile] | 35
[2H]c1ccc2c(N3C[C@H](CN4CC5(C4)OCc4cc(N6C[C@@H](N)[C@H](OC)C6)ccc45)O[C@H](C)C3)ccc(C#N)c2n1 [Example 16, 5-[(2S,6R)-2-[[6-[(3R,4R)-3-amino-4-methoxy-pyrrolidin-1-yl]spiro[1H-isobenzofuran-3,3′-azetidine]-1′-yl]methyl]-6-methyl-morpholin-4-yl]-2-deuterio-quinoline-8-carbonitrile] | 13
C[C@@H]1CN(c2ccc(C#N)n3nccc23)C[C@H](CN2CC3(C2)OCc2cc(N4CC(C)(N)C4)ncc23)O1 [Example 25, 4-[(2S,6R)-2-[[6-(3-amino-3-methyl-azetidin-1-yl)spiro[1H-furo[3,4-c]pyridine-3,3′-azetidine]-1′-yl]methyl]-6-methyl-morpholin-4-yl]pyrazolo[1,5-a]pyridine-7-carbonitrile] | 120
C[C@@H]1CN(c2ccc(C#N)n3ncc(F)c23)C[C@H](CN2CC3(C2)OCc2cc(N4CC(C)(N)C4)cnc23)O1 [Example 33, 4-[(2S,6R)-2-[[3-(3-amino-3-methyl-azetidin-1-yl)spiro[5H-furo[3,4-b]pyridine-7,3′-azetidine]-1′-yl]methyl]-6-methyl-morpholin-4-yl]-3-fluoro-pyrazolo[1,5-a]pyridine-7-carbonitrile] | 24
C[C@@H]1CN(c2ccc(C#N)n3ncc(F)c23)C[C@H](CN2CC3(C2)OCc2cc(N4C[C@H](N)[C@@H](O)C4)ccc23)O1 [Example 10, 4-[(2S,6R)-2-[[6-[(3S,4S)-3-amino-4-hydroxy-pyrrolidin-1-yl]spiro[1H-isobenzofuran-3,3′-azetidine]-1′-yl]methyl]-6-methyl-morpholin-4-yl]-3-fluoro-pyrazolo[1,5-a]pyridine-7-carbonitrile] | 142
